From ChEMBL document CHEMBL5154726, “Identification of triazolopyridine derivatives as a new class of AhR agonists and evaluation of anti-psoriasis effect in a mouse model” (Eur J Med Chem, 2022) come the findings set out here.

Data set [1] has as its target T1, Aryl hydrocarbon receptor (Homo sapiens, UniProt P35869).
T1 sequence (P35869 whole entry): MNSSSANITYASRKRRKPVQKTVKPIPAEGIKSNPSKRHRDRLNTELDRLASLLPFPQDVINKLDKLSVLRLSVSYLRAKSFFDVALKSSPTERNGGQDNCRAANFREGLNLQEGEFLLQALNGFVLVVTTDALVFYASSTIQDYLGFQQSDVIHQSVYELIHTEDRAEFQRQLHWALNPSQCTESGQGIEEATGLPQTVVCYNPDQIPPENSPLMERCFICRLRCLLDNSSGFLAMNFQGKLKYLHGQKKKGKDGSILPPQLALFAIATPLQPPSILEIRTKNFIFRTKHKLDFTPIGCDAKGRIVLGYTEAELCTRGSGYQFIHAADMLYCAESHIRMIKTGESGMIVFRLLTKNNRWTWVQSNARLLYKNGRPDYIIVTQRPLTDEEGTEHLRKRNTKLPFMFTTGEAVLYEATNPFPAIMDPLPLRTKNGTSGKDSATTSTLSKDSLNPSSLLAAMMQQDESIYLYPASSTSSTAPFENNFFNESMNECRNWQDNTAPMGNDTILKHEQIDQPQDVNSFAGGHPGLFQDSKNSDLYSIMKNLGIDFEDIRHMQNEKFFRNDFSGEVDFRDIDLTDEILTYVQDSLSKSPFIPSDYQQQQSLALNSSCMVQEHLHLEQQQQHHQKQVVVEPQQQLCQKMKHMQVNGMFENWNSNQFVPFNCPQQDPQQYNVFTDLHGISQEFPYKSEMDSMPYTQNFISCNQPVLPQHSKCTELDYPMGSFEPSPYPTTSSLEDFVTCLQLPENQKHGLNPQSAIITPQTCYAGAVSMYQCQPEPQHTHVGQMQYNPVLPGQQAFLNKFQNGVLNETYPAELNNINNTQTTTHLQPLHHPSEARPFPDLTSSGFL
Kind of data set: Agonist activity at AhR in human recombinant HepG2-Lucia AhR cell incubated for 24 hrs by luciferase reporter gene assay. The data set is classed as cell-based. (A reporter such as luciferase makes a cellular process visible.)

The nature of data set [2]: Apparent permeability in MDCK cells at 50 uM incubated for 90 mins by LC/MS analysis. Format: ADME, cell-based, Canis lupus familiaris. Particulars: dog.
Data set [3] in a line: Efflux ratio of apparent permeability in MDCK cells. The data set is classed as ADME, cell-based, Canis lupus familiaris. Particulars: dog.
A short description of data set [4]: Solubility of the compound incubated for 48 hrs under shaking condition by LC/MS analysis. Format: physicochemical.
Data set [5] is described as follows: n-Octanol/water partition coefficient, logD of the compound at 1 mg incubated for 48 hrs under shaking condition by LC/MS analysis. Format: physicochemical.
Data set [6] in a line: Induction of apoptosis in human CD4+ve Th cells. Format: toxicity, cell-based.

Values after ≈ are worked out from the molar mass of the structure shown. Some results are limits rather than exact numbers.

For `[O-][n+]1c(-c2ccc(Br)cc2)nc2ccc(F)cn21`, in data set [1], the EC50 (in general, the concentration that produces a half-maximal response) was 1090 nM. The same measure, in the same setting: next, `[O-][n+]1c(-c2ccc3ccccc3c2)nc2ccccn21`: above 10000 nM. Consider `[O-][n+]1c(-c2ccc(Br)cc2)nc2ccc(Br)cn21`, for which the EC50 in data set [1] came to 0.27 nM. In addition, in data set [2], the Papp (commonly a coefficient for how fast a substance crosses the barrier) at 1.5 h, 50 µM was found to be 1.43 ×10⁻⁶ cm/s. For the same molecule, the efflux ratio (as a rule, a quotient of directional permeabilities that is used to spot active efflux) in data set [3] amounted to 6.2. Further, in data set [4], the solubility (thermodynamic) (usually solubility found after equilibrating the solid with the medium) at 48 h stood at 2.24 µg/mL (≈ 6.07 µM). The logD (in general, lipophilicity at a set pH, counting ionised and neutral species) at 48 h in data set [5] came to 2.59. For `Brc1ccc2nc(-c3ccccc3Br)nn2c1`, the EC50 in data set [1] was determined as 2430 nM. The same measure, in the same setting: the same measure for `N#Cc1ccc2nc(-c3ccc(Br)cc3)nn2c1`: 23 nM; for `[O-][n+]1c(-c2ccc(Br)cc2)nc2ccc(C(F)(F)F)cn21`: 759 nM; for `[O-][n+]1c(-c2ccc(F)cc2)nc2ccccn21`: above 10000 nM. Still for that read-out and setting: the same measure for `Fc1ccc(-c2nc3ccc(Br)cn3n2)cc1`: 1190 nM.

With `[O-][n+]1c(-c2ccc(Br)cc2)nc2cccc(Br)n21`, the EC50 in data set [1] came out at 205 nM.

For `Cc1ccc2nc(-c3ccc(Br)cc3)nn2c1`, the EC50 in data set [1] was above 10000 nM. The same measure, in the same setting: next, `Fc1ccc2nc(-c3ccc(Br)cc3)nn2c1`: 658 nM.

Consider `CC(C)c1c(O)cc(/C=C/c2ccccc2)cc1O` [TAPINAROF], for which, in data set [6], the IC50 (in general, the concentration that gives 50% inhibition) was determined as 5200 nM.

On to `Brc1ccc2nc(-c3ccccc3)nn2c1`, for which, in data set [1], the EC50 is above 10000 nM. In the case of `[O-][n+]1c(-c2ccc(Br)cc2)nc2cc(Cl)ccn21`, the EC50 in data set [1] came out at 271 nM. As for `[O-][n+]1c(-c2ccc(Br)cc2)nc2cc(Br)ccn21`, the EC50 in data set [1] stood at 62 nM. Consider `[O-][n+]1c(-c2ccc(Br)cc2)nc2ccccn21`, for which the EC50 in data set [1] was found to be 2500 nM. With `[O-][n+]1c(-c2cccnc2)nc2ccccn21`, the EC50 in data set [1] was above 10000 nM. On the same count and under the same terms, the same measure for `N#Cc1ccc2nc(-c3ccc(Br)cc3)[n+]([O-])n2c1`: 77 nM; for `FC(F)(F)c1ccc(-c2nc3ccc(Br)cn3n2)cc1`: 0.44 nM. Still for that read-out and setting: the same measure for `COC(=O)c1ccc(-c2nc3ccccn3[n+]2[O-])cc1`: above 10000 nM. The same measure, in the same setting: next, `[O-][n+]1c(-c2ccc(Cl)cc2)nc2ccccn21`: 3330 nM; `[O-][n+]1c(-c2ccc(Br)cc2)nc2c(Br)cccn21`: 374 nM; `[O-][n+]1c(-c2ccc(Br)cc2)nc2cc(F)ccn21`: 83 nM. Take `COc1ccc(-c2nc3ccccn3[n+]2[O-])cc1`: the EC50 in data set [1] is above 10000 nM. Still for that read-out and setting: next, `Brc1cccc(-c2nc3ccc(Br)cn3n2)c1`: 9.6 nM. Still for that read-out and setting: next, `[O-][n+]1c(-c2ccc(Br)nc2)nc2ccccn21`: above 10000 nM; `Cc1ccc(-c2nc3ccc(Br)cn3n2)cc1`: 1890 nM. On to `[O-][n+]1c(-c2ccc(Br)cc2)nc2ccc(Cl)cn21`, for which, in data set [1], the concentration giving a half-maximal response (EC50) came out at 0.34 nM. The same measure, in the same setting: next, `[O-][n+]1c(-c2ccncc2)nc2ccccn21`: 4660 nM; `Clc1ccc2nc(-c3ccc(Br)cc3)nn2c1`: 156 nM; `Clc1ccc(-c2nc3ccc(Br)cn3n2)cc1`: 0.83 nM.

For the molecule `Brc1ccc(-c2nc3cccc(Br)n3n2)cc1`, in data set [1], the 50% effective concentration (EC50) turned out to be 625 nM. Same read-out and setting: next, `Brc1ccc(-c2nc3ccc(-c4ccccc4)cn3n2)cc1`: above 10000 nM; `Cc1ccc2nc(-c3ccc(Br)cc3)[n+]([O-])n2c1`: 842 nM.

Regarding `Brc1ccc(-c2nc3cc(Br)ccn3n2)cc1`, in data set [1], the EC50 turned out to be 625 nM. As for `Brc1ccc(-c2nc3cc4ccccc4cn3n2)cc1`, in data set [1], the EC50 is above 10000 nM. The same measure, in the same setting: the same measure for `[O-][n+]1c(-c2ccc(-c3ccc(Cl)cc3)o2)nc2ccccn21`: above 10000 nM; for `Brc1ccc(-c2nc3c(Br)cccn3n2)cc1`: 172 nM.
